Assay results as given in patent US20240327408A1, “COMPOUNDS CONTAINING TETRAHYDRONAPHTHYRIDINONE OR TETRAHYDROPYRIDOPYRIMIDINONE SKELETON, PREPARATION METHOD THEREFOR AND PHARMACEUTICAL USE THEREOF” (CHINA PHARMACEUTICAL UNIVERSITY, priority 2021, published 2024).

What was measured:
hClpP = target: T1, hClpP (Homo sapiens, UniProt Q16740); test: activating ClpP hydrolysis of FITC-casein (fluorescence kinetic detection); format: biochemical; conditions: hClpP 1 μM, FITC-Casein 4 μM, 37° C.
T1 construct: made in house
Outline: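 hClpP at 1 μM final preincubated with compounds (assay-buffer dilutions 200 μM–2 nM, before mixing) 30 min at 37 °C, then 4 μM final FITC-casein added. Fluorescence read kinetically at 37 °C every 1 min for 15 min, duplicate wells.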

MV4; 11 cells = test: inhibiting the growth of MV4; 11 cells; format: cell-based; conditions: Homo sapiens

T1 sequence (Q16740 57-277): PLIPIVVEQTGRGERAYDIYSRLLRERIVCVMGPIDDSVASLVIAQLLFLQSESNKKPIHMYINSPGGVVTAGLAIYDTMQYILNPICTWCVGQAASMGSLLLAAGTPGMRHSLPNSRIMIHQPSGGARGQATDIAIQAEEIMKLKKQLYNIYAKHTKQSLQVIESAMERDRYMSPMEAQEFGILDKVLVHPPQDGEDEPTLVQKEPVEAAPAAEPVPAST

Structure (SMILES) | EC50 (hClpP) | IC50 (MV4; 11 cells)
CCc1ccc(Cn2c(=O)c3c(c4cccnc42)CCN(Cc2cccc(Cl)c2)C3)cc1 [Compound I-96, 6-(4-ethylbenzyl)-3-(3-chlorobenzyl)-2,3,4,6-tetrahydropyrido[3,4-c][1,8]naphthyridine-5-(1H)-one] | < 1000 nM | < 1000 nM
O=c1c2c(c3cccnc3n1Cc1ccc(C(F)(F)F)cc1)CCN(Cc1ccccc1)C2 [Compound I-70, 3-benzyl-6-(4-(trifluoromethyl)benzyl)-2,3,4,6-tetrahydropyrido[3,4-c][1,8]naphthyridine-5-(1H)-one] | < 1000 nM | < 1000 nM
N#Cc1cccc(CN2CCc3c(c(=O)n(Cc4ccc(Cl)cc4)c4nccn34)C2)c1 [Compound I-121, 7-(3-cyanobenzyl)-4-(4-chlorobenzyl)-6,7,8,9-tetrahydroimidazo[1,2-a]pyrido[3,4-e]pyrimidine-5(4H)-one] | < 1000 nM | < 1000 nM
Cn1cnc(Cn2c(=O)c3c(c4cccnc42)CCN(Cc2ccccc2)C3)c1 [Compound I-66, 3-benzyl-6-((1-methyl-1H-imidazol-4-yl)methyl)-2,3,4,6-tetrahydropyrido[3,4-c][1,8]naphthyridine-5-(1H)-one] | 10000 to 100000 nM | 1000 to 10000 nM
O=c1c2c(n3nccc3n1Cc1ccc(Cl)cc1)CCN(Cc1ccccc1)C2 [Compound I-161, 4-(4-chlorobenzyl)-7-benzyl-6,7,8,9-tetrahydropyrazolo[1,5-a]pyrido[3,4-e]pyrimidine-5(4H)-one] | 1000 to 10000 nM | 1000 to 10000 nM
O=c1c2c(n3ccnc3n1Cc1ccc3c(c1)OCCO3)CCN(Cc1cccc(Cl)c1)C2 [Compound I-148, 7-(3-chlorobenzyl)-4-((2,3-dihydro[1,4]benzodioxin-6-yl)methyl)-6,7,8,9-tetrahydroimidazo[1,2-a]pyrido[3,4-e]pyrimidine-5(4H)-one] | 1000 to 10000 nM | 1000 to 10000 nM
Cc1cccc(Cn2c(=O)c3c(c4cccnc42)CCN(Cc2ccccc2)C3)c1 [Compound I-49, 3-benzyl-6-(3-methylbenzyl)-2,3,4,6-tetrahydropyrido[3,4-c][1,8]naphthyridine-5-(1H)-one] | < 1000 nM | < 1000 nM
O=c1c2c(n3ccnc3n1Cc1ccc(Cl)cc1)CCN(Cc1cccc(F)c1)C2 [Compound I-118, 7-(3-fluorobenzyl)-4-(4-chlorobenzyl)-6,7,8,9-tetrahydroimidazo[1,2-a]pyrido[3,4-e]pyrimidine-5(4H)-one] | < 1000 nM | < 1000 nM
N#Cc1cccc(CN2CCc3c(c(=O)n(Cc4ccccc4)c4ccnn34)C2)c1 [Compound I-157, 4-benzyl-7-(3-cyanobenzyl)-6,7,8,9-tetrahydropyrazolo[1,5-a]pyrido[3,4-e]pyrimidine-5(4H)-one] | 1000 to 10000 nM | 1000 to 10000 nM
N#Cc1cccc(CN2CCc3c(c(=O)n(Cc4ccc5c(c4)OCO5)c4ncccc34)C2)c1 [Compound I-98, 6-([1,3]benzodioxol-5-ylmethyl)-3-(3-cyanobenzyl)-2,3,4,6-tetrahydropyrido[3,4-c][1,8]naphthyridine-5-(1H)-one] | 1000 to 10000 nM | 1000 to 10000 nM
N#Cc1cccc(CN2CCc3c(c(=O)n(Cc4ccc(Br)cc4)c4ncccc34)C2)c1 [Compound I-86, 6-(4-bromobenzyl)-3-(3-cyanobenzyl)-2,3,4,6-tetrahydropyrido[3,4-c][1,8]naphthyridine-5-(1H)-one] | < 1000 nM | < 1000 nM
O=c1c2c(n3nccc3n1Cc1ccc(C(F)(F)F)cc1)CCN(Cc1ccccc1)C2 [Compound I-159, 4-(4-trifluoromethylbenzyl)-7-benzyl-6,7,8,9-tetrahydropyrazolo[1,5-a]pyrido[3,4-e]pyrimidine-5(4H)-one] | 1000 to 10000 nM | 1000 to 10000 nM
O=c1c2c(n3cccc3n1Cc1ccc(C(F)(F)F)cc1)CCN(Cc1ccccc1)C2 [Compound I-168, 3-benzyl-6-(4-trifluoromethylbenzyl)-1,2,3,4-tetrahydropyrido[3,4-e]pyrrolo[1,2-a]pyrimidine-5(6H)-one] | < 1000 nM | < 1000 nM
Cc1cccc(CN2CCc3c(c(=O)n(Cc4ccc(Cl)cc4)c4nccn34)C2)c1 [Compound I-120, 7-(3-methylbenzyl)-4-(4-chlorobenzyl)-6,7,8,9-tetrahydroimidazo[1,2-a]pyrido[3,4-e]pyrimidine-5(4H)-one] | < 1000 nM | < 1000 nM
O=c1c2c(c3cccnc3n1Cc1ccc(Cl)cc1)CCN(Cc1cccc(F)c1)C2 [Compound I-74, 3-(3-fluorobenzyl)-6-(4-chlorobenzyl)-2,3,4,6-tetrahydropyrido[3,4-c][1,8]naphthyridine-5-(1H)-one] | < 1000 nM | < 1000 nM
O=c1c2c(n3ccnc3n1Cc1ccc(C(F)(F)F)cc1)CCN(Cc1ccccc1)C2 [Compound I-127, 7-benzyl-4-(4-trifluoromethylbenzyl)-6,7,8,9-tetrahydroimidazo[1,2-a]pyrido[3,4-e]pyrimidine-5(4H)-one] | < 1000 nM | < 1000 nM
Cc1ccccc1CN1CCc2c(c(=O)n(Cc3ccccc3)c3ncccc23)C1 [Compound I-9, 6-benzyl-3-(2-methylbenzyl)-2,3,4,6-tetrahydropyrido[3,4-c][1,8]naphthyridine-5-(1H)-one] | 1000 to 10000 nM | < 1000 nM

Structure (SMILES) | EC50 (hClpP) | IC50 (MV4; 11 cells)
N#Cc1cccc(CN2CCc3c(c(=O)n(Cc4ccc(C(F)(F)F)cc4)c4ccnn34)C2)c1 [Compound I-160, 4-(4-trifluoromethylbenzyl)-7-(3-cyanobenzyl)-6,7,8,9-tetrahydropyrazolo[1,5-a]pyrido[3,4-e]pyrimidine-5(4H)-one] | 1000 to 10000 nM | 1000 to 10000 nM
O=c1c2c(c3cscc3n1Cc1ccc(C(F)(F)F)cc1)CCN(Cc1ccccc1)C2 [Compound I-102, 7-benzyl-4-(4-trifluoromethylbenzyl)-6,7,8,9-tetrahydrothieno[3,4-C][2,7]naphthyridine-5(4H)-one] | < 1000 nM | < 1000 nM
O=c1c2c(c3cccnc3n1Cc1ccccc1)CCN(Cc1ccc(F)cc1)C2 [Compound I-18, 6-benzyl-3-(4-fluorobenzyl)-2,3,4,6-tetrahydropyrido[3,4-c][1,8]naphthyridine-5-(1H)-one] | 1000 to 10000 nM | < 1000 nM
O=c1c2c(c3cccnc3n1Cc1ccccc1)CCN(Cc1ccccc1Br)C2 [Compound I-8, 6-benzyl-3-(2-bromobenzyl)-2,3,4,6-tetrahydropyrido[3,4-c][1,8]naphthyridine-5-(1H)-one] | 1000 to 10000 nM | < 1000 nM
O=c1c2c(c3cccnc3n1Cc1ccc(Br)cc1)CCN(Cc1ccccc1)C2 [Compound I-54, 3-benzyl-6-(4-bromobenzyl)-2,3,4,6-tetrahydropyrido[3,4-c][1,8]naphthyridine-5-(1H)-one] | < 1000 nM | < 1000 nM
O=c1c2c(c3cocc3n1Cc1ccc(C(F)(F)F)cc1)CCN(Cc1ccccc1)C2 [Compound I-101, 7-benzyl-4-(4-trifluoromethylbenzyl)-6,7,8,9-tetrahydrofuro[3,4-C][2,7]naphthyridine-5(4H)-one] | < 1000 nM | < 1000 nM
O=c1c2c(c3cccnc3n1CC1CCC1)CCN(Cc1ccccc1)C2 [Compound I-37, 3-benzyl-6-(cyclobutylmethyl)-2,3,4,6-tetrahydropyrido[3,4-c][1,8]naphthyridine-5-(1H)-one] | 10000 to 100000 nM | 1000 to 10000 nM
Cc1ncc(Cn2c(=O)c3c(c4cccnc42)CCN(Cc2ccccc2)C3)s1 [Compound I-69, 3-benzyl-6-((2-methylthiazol-5-yl)methyl)-2,3,4,6-tetrahydropyrido[3,4-c][1,8]naphthyridine-5-(1H)-one] | 10000 to 100000 nM | 1000 to 10000 nM
CCc1ccc(Cn2c(=O)c3c(c4cccnc42)CCN(Cc2cccc(F)c2)C3)cc1 [Compound I-95, 6-(4-ethylbenzyl)-3-(3-fluorobenzyl)-2,3,4,6-tetrahydropyrido[3,4-c][1,8]naphthyridine-5-(1H)-one] | < 1000 nM | < 1000 nM
Cc1ccc(CN2CCc3c(c(=O)n(Cc4ccccc4)c4ncccc34)C2)cc1 [Compound I-21, 6-benzyl-3-(4-methylbenzyl)-2,3,4,6-tetrahydropyrido[3,4-c][1,8]naphthyridine-5-(1H)-one] | 1000 to 10000 nM | < 1000 nM
Cc1ccc(Cn2c(=O)c3c(c4cccnc42)CCN(Cc2cccc(Cl)c2)C3)cc1 [Compound I-92, 6-(4-methylbenzyl)-3-(3-chlorobenzyl)-2,3,4,6-tetrahydropyrido[3,4-c][1,8]naphthyridine-5-(1H)-one] | < 1000 nM | < 1000 nM
Cc1ncc(CN2CCc3c(c(=O)n(Cc4ccccc4)c4ncccc34)C2)s1 [Compound I-35, 6-benzyl-3-((2-methylthiazol-5-yl)methyl)-2,3,4,6-tetrahydropyrido[3,4-c][1,8]naphthyridine-5-(1H)-one] | 10000 to 100000 nM | 1000 to 10000 nM
COc1ccc(Cn2c(=O)c3c(c4cccnc42)CCN(Cc2cccc(Cl)c2)C3)cc1 [Compound I-100, 6-(4-methoxybenzyl)-3-(3-chlorobenzyl)-2,3,4,6-tetrahydropyrido[3,4-c][1,8]naphthyridine-5-(1H)-one] | < 1000 nM | < 1000 nM
O=c1c2c(c3cccnc3n1Cc1ccc(F)cc1)CCN(Cc1cccc(Cl)c1)C2 [Compound I-72, 3-(3-chlorobenzyl)-6-(4-fluorobenzyl)-2,3,4,6-tetrahydropyrido[3,4-c][1,8]naphthyridine-5-(1H)-one] | < 1000 nM | < 1000 nM
O=c1c2c(c3cncnc3n1Cc1ccc(C(F)(F)F)cc1)CCN(Cc1ccccc1)C2 [Compound I-81, 8-benzyl-5-(4-(trifluoromethyl)benzyl)-7,8,9,10-tetrahydropyrimidinyl[4,5-c][2,7]naphthyridine-6-(5H)-one] | < 1000 nM | < 1000 nM
O=c1c2c(c3cccnc3n1Cc1ccccc1)CCN(Cc1cccc(Br)c1)C2 [Compound I-14, 6-benzyl-3-(3-bromobenzyl)-2,3,4,6-tetrahydropyrido[3,4-c][1,8]naphthyridine-5-(1H)-one] | < 1000 nM | < 1000 nM
